Experimental data from US7589092B2, “Prodrugs of heteroaryl compounds” (Koronis Pharmaceuticals, Incorporated, priority 2003, dated 2009).

Experiments:
[1] = test system: HIV; conditions: Bouchard et al.; cited from earlier work
[2] = deamination product of 5-aza-dC; Momparler et al.; cited from earlier work
[3] = Bioavailability / pharmacokinetic study in dogs; format: in vivo, Canis familiaris; conditions: dog
From the text: This study tested the bioavailability of different test compounds in dogs, by intravenous or oral gavage administration, at prescribed dose levels. The animals tested in this study were Canis familiaris, from Harlan Sprague Dawley (Indianapolis, Ind.). Four dogs (2 males and 2 females), with an average age of seven months, were included in each test group. The dogs were identified by ear tattoos, and given a fourteen day acclimatization period prior to the commencement of testing. Dogs were group housed but separated by sex. The animal room environment was controlled and monitored daily. The temperature ranged from 18 to 29° C. and the relative humidity ranged from 30%-70%. The photocycle was 12 hours light and 12 hours dark. All animals were submitted to a general physical examination and only those found healthy were admitted for the study. All selected animals were given two days to adjust to laboratory conditions before the study began. Teklad Dog Diet was fed twice daily and water was constantly available to the dogs throughout the acclimatization and study periods. Twenty-four hours prior to the initiation of the study, animals were randomly selected into two groups with 1 male and 1 female in each group. […] Blood was collected from the v. cephalica antebrachii of each of the two animals prior to study initiation, at thirty minutes and at 1, 2, 4, and 12 hours after dosing. […] IV dosages of DHAdC, as well as oral dosages of prodrugs […] C9-DHAdC were recorded. The dogs were administered 50 mg/kg DHAdC or DHAdC equivalent in the case of prodrugs. The maximum concentration (Cmax), clearance (AUC∞), half-life (T1/2), and % Oral Bioavailability were recorded and are presented in Table 2: […]

[4] = Bioavailability / pharmacokinetic study in rats; format: in vivo; conditions: rat
From the text: This study tested the bioavailability of different test compounds in rats, by oral gavage administration, at prescribed dose levels. The animals tested in this study were Rattus norvegicus, CD strain, from Charles River Canada (Montreal, Canada). Six males were included in each test group. Their weight ranged from 200 to 250 grams before fasting. […] Rats were individually housed in Nalgene rat cages with stainless steel covers. The animal room environment was controlled and monitored daily. The temperature ranged from 18 to 26° C. and the relative humidity ranged from 30%-70%. The photocycle was 12 hours light and 12 hours dark. All animals were submitted to a general physical examination and only those found healthy were admitted for the study. All selected animals were given two days to adjust to laboratory conditions before the study began. Teklad rodent Diet and water were constantly available to the rats throughout the acclimatization and study periods. Forty-eight hours prior to the initiation of the study, animals were randomly selected and two subsets of 3 male rats per group were formed. Due to the large volume of blood taken, collections will be done by alternating timepoints between subsets. All animals were fasted for twelve hours prior to the initiation of the study. […] Blood was collected from the orbital sinus of animals from each group at thirty minutes and at 1, 2, 4, and 12 hours after dosing. At each blood collection time point, three rats per group were bled. […] Oral and IV dosages of DHAdC, as well as oral dosages of prodrugs C7-DHAdC and C9-DHAdC were recorded. The rats were administered 100 mg/kg DHAdC or DHAdC equivalent in the case of prodrugs. The maximum concentration (Cmax), clearance (AUC∞), half-life (T1/2), and % Oral Bioavailability were recorded and are presented in Table 1: […]

[5] = test concentration 100 um, RT, 60 minutes equilibration
Procedure: The compounds were first dissolved in a 60% methanol/40% water (v/v) solution containing 1% DMSO and brought to a concentration of 100 μM. The optimal detection wavelength was determined and calibration studies were performed with the solution. After calibration, the compounds were placed into n-octanol-PBS buffer at pH 7.4 at RT. The mixture was shaken and allowed to equilibrate for 60 minutes. The amount of compound in the PBS buffer phase was then determined by HPLC/UV-Vis. The amount of compound in n-octanol was determined by subtracting […]. This experiment was conducted for three samples. These three samples were then each corrected for volume and the results were averaged. Log D was calculated as the Log10 of the amount of compound in the n-octanol phase divided by the amount of compound in the buffer phase.
Lipophilicity is a major structural factor that influences the pharmacokinetic and pharmacodynamic behavior of compounds. In this assay, prodrugs C7-DHAdC, C8-DHAdC, and C9-DHAdC were partitioned between n-octanol and phosphate buffered saline (PBS).

[6] = oral gavage, 50 mg/kg DHAdC equivalent
[7] = oral gavage, 100 mg/kg DHAdC or DHAdC equivalent
[8] = both sexes, blood, IV, 50 mg/kg DHAdC
[9] = male, CD, blood, IV, 100 mg/kg DHAdC
[10] = male, CD, blood, oral gavage, 100 mg/kg DHAdC or DHAdC equivalent

Structure (SMILES)	AUC∞ [3, 6]	Cmax [3, 6]	Oral bioavailability [3, 6]	T1/2 [3, 6]	AUC∞ [4, 7]	Cmax [4, 7]	Oral bioavailability [4, 7]	T1/2 [4, 7]	log D n-Octanol PBS pH 7.4 [5]	further results
Nc1ncn([C@H]2C[C@H](O)[C@@H](CO)O2)c(=O)n1 [Compound 5-aza-dC, 5-aza-2′-deoxycytidine]										HIV replication in vitro [1]: inhibit HIV replication in vitro
O=c1ncn([C@H]2C[C@H](O)[C@@H](CO)O2)c(=O)[nH]1 [Compound 5-aza-dU, 5-aza-2′-deoxyuridine]										antineoplastic activity [2]: loss of antineoplastic activity
CCCCCCCOC(=O)NC1=NC(=O)N([C@H]2C[C@H](O)[C@@H](CO)O2)CN1 [Compound C7-DHAdC, N^4-Heptyloxycarbonyl-β-2′-deoxy-5,6-dihydro-5-azacytidine]	59,377 ng-hr/mL	11,282 ng/mL	51%	2.1 h	32,101 ng-hr/mL	5,577 ng/mL	43%	3.9 h	2.04	
CCCCCCCCOC(=O)NC1=NC(=O)N([C@H]2C[C@H](O)[C@@H](CO)O2)CN1 [Compound C8-DHAdC, N^4-Octyloxycarbonyl-β-2′-deoxy-5,6-dihydro-5-azacytidine]	17,845 ng-hr/mL	5,172 ng/mL	11%	2.8 h					2.56	
CCCCCCCCCOC(=O)NC1=NC(=O)N([C@H]2C[C@H](O)[C@@H](CO)O2)CN1 [Compound C9-DHAdC, N^4-Nonyloxycarbonyl-β-2′-deoxy-5,6-dihydro-5-azacytidine]	54,540 ng-hr/mL	8,932 ng/mL	36%	2.2 h	26,472 ng-hr/mL	5,550 ng/mL	35%	3.6 h	3.16	
NC1=NC(=O)N([C@H]2C[C@H](O)[C@@H](CO)O2)CN1 [DHAdC, 5,6-dihydro-5-aza-2′-deoxycytidine]										AUC(0-inf) [3, 8]: 156 µg·h/mL; half-life [3, 8]: 2.1 h; Cmax ([3]; both sexes, blood, IV, 50 mg/kg DHAdC, read-out: Cmax): 76.3 µg/mL; AUC(0-inf) [4, 9]: 75 µg·h/mL; half-life [4, 9]: 1.8 h; Cmax ([4]; male, CD, blood, IV, 100 mg/kg DHAdC, read-out: Cmax): 40 µg/mL; AUC(0-inf) [4, 10]: 8.54 µg·h/mL; bioavailability [4, 10]: 11%; half-life [4, 10]: 0.8 h; Cmax ([4]; male, CD, blood, oral gavage, 100 mg/kg DHAdC or DHAdC equivalent, read-out: Cmax): 1.86 µg/mL
